Read-outs that look alike come from different tables or passages of the source.
What was measured:
[1] = biological target: T1, human recombinant HDAC6 (Homo sapiens, UniProt Q9UBN7); test: HDAC6 enzyme activity inhibition (HDAC Fluorimetric Drug Discovery Kit); format: biochemical
T1 construct: purchased Calbiochem Inc. 382180
T1 sequence (Q9UBN7 1-1215): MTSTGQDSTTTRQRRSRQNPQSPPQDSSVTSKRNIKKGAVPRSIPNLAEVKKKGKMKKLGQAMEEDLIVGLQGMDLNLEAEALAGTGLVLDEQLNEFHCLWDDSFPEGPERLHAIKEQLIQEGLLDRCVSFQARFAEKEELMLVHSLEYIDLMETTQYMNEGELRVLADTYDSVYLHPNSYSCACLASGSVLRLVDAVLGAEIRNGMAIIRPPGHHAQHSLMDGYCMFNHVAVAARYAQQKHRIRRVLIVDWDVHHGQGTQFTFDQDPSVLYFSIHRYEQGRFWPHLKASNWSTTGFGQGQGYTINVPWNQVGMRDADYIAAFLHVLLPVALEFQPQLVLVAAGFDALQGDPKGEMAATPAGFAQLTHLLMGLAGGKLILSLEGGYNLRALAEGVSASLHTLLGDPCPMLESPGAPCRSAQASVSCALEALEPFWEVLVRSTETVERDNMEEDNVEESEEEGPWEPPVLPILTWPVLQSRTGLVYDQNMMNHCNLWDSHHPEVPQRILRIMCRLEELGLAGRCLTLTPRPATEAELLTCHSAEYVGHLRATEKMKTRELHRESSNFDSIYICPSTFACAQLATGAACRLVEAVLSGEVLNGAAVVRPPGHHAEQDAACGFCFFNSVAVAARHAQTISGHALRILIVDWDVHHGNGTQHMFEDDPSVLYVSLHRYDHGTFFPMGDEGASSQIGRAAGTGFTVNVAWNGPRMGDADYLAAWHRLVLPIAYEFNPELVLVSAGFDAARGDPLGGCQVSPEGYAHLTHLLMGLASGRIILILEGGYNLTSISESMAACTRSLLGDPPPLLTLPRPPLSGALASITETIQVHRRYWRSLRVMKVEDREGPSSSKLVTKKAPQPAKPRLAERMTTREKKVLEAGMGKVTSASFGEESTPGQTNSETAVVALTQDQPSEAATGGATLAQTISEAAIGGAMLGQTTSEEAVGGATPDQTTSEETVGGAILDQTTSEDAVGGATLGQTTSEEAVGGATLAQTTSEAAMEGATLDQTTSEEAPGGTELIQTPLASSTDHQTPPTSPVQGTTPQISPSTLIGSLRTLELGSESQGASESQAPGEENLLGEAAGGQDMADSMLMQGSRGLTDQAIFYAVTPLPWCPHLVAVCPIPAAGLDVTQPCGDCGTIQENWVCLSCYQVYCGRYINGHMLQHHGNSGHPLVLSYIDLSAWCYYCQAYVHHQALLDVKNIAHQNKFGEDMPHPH
In short: (§1)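 Enzyme at 0.3 µg per well was reacted with 10 μM fluorogenic substrate in presence of 5-fold diluted compound, 30° C for 60 min.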

[2] = biological target: T2, human recombinant HDAC1 (Homo sapiens, UniProt Q13547); test: HDAC1 enzyme activity inhibition (HDAC Fluorimetric Drug Discovery Kit); format: biochemical; conditions: read-out: HDAC1
T2 construct: purchased Enzo Life Science, Inc. BML-SE456
T2 sequence (Q13547 whole entry): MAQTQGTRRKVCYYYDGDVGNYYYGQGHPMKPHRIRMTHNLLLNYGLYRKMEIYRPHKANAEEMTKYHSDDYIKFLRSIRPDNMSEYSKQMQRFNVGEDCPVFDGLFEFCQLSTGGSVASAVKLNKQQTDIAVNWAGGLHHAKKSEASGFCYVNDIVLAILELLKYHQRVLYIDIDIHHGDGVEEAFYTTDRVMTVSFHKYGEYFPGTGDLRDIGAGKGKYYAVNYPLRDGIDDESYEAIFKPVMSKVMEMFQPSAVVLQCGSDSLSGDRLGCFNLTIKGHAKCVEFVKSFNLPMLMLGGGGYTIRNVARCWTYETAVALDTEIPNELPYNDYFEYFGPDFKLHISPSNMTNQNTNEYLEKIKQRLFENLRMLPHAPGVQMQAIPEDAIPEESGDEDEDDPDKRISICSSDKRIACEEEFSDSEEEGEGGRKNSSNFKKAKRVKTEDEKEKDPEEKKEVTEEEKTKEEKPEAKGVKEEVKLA
In short: as §1

[3] = human recombinant HDAC6, IC50 calculated with GraphPad Prism
[4] = human recombinant HDAC1, IC50 calculated with GraphPad Prism
[5] = human recombinant HDAC6, same protocol as HDAC1
[6] = human recombinant HDAC1, Fluor de Lys substrate, 30° C. 60 minutes

| HDAC6 selectivity (fold) ([1]; HDAC1 IC50 / HDAC6 IC50) | IC50 [1, 3] [nM] | IC50 [2, 4] [nM] | HDAC6 selectivity (fold) ([1]; HDAC6 over HDAC1) | IC50 [1, 5] [nM] | IC50 [2, 6] [nM] | SMILES |
| --- | --- | --- | --- | --- | --- | --- |
| – | – | – | 1123 | 44.5 | > 50000 | Fc1cc(-c2nnc(C(F)F)o2)cnc1Cn1cc(-c2cccc(C3CCN(C4CCC4)CC3)c2)nn1 [Compound 18870, 2-(6-((4-(3-(1-cyclobutylpiperidin-4-yl)phenyl)-1H-1,2,3-triazol-1-yl)methyl)-5-fluoropyridin-3-yl)-5-(difluoromethyl)-1,3,4-oxadiazole] |
| 1201 | 41.6 | > 50000 | – | – | – | CN(C)C(C)(C)C(=O)Nc1cccc(-c2cn(Cc3ccc(-c4nnc(C(F)F)o4)cc3F)nn2)c1 [Compound 4353] |
| 1256 | 39.8 | > 50000 | – | – | – | CCN1[C@H](C)CN(c2cccc(-c3cn(Cc4ccc(-c5nnc(C(F)F)o5)cc4)nn3)c2)C[C@@H]1C [Compound 4442] |
| 1022 | 48.9 | > 50000 | – | – | – | OCc1ccc(-c2cn(Cc3ccc(-c4nnc(C(F)F)o4)cc3F)nn2)cc1 [Compound 4476, (4-(1-(4-(5-(difluoromethyl)-1,3,4-oxadiazol-2-yl)-2-fluorobenzyl)-1H-1,2,3-triazol-4-yl)phenyl)methanol] |
| 1466 | 34.1 | > 50000 | – | – | – | CN(C)C1CCN(Cc2ccc(-c3cn(Cc4ccc(-c5nnc(C(F)F)o5)cc4F)nn3)cc2)CC1 [Compound 4494, 1-(4-(1-(4-(5-(difluoromethyl)-1,3,4-oxadiazol-2-yl)-2-fluorobenzyl)-1H-1,2,3-triazol-4-yl)benzyl)-N,N-dimethylpiperidin-4-amine] |
| – | – | – | 1262 | 39.6 | > 50000 | Fc1cc(-c2cn(Cc3ncc(-c4nnc(C(F)F)o4)cc3F)nn2)ccc1CN1CCC1 [Compound 18947, 2-(6-((4-(4-(azetidin-1-ylmethyl)-3-fluorophenyl)-1H-1,2,3-triazol-1-yl)methyl)-5-fluoropyridin-3-yl)-5-(difluoromethyl)-1,3,4-oxadiazole] |
| – | – | – | 572 | 87.4 | > 50000 | Fc1cc(-c2nnc(C(F)F)o2)ccc1Cn1cc(-c2ccc3c(c2)CN(CC2(F)CC2)C3)nn1 [Compound 17460, 2-(difluoromethyl)-5-(3-fluoro-4-((4-(2-((1-fluorocyclopropyl)methyl)isoindolin-5-yl)-1H-1,2,3-triazol-1-yl)methyl)phenyl)-1,3,4-oxadiazole] |
| – | – | – | 628 | 79.5 | > 50000 | CN1CCN(c2ccc(-c3cn(Cc4ccc(-c5nnc(C(F)F)o5)cc4F)nn3)cn2)CC1 [Compound 16789, 2-(difluoromethyl)-5-(3-fluoro-4-((4-(6-(4-methylpiperazin-1-yl)pyridin-3-yl)-1H-1,2,3-triazol-1-yl)methyl)phenyl)-1,3,4-oxadiazole] |
| 1315 | 38 | > 50000 | – | – | – | C[C@@H]1CN(c2cccc(-c3cn(Cc4ccc(-c5nnc(C(F)F)o5)cc4)nn3)c2)C[C@H](C)N1C [Compound 4441, 2-(difluoromethyl)-5-(4-((4-(3-((3R,5S)-3,4,5-trimethylpiperazin-1-yl)phenyl)-1H-1,2,3-triazol-1-yl)methyl)phenyl)-1,3,4-oxadiazole] |
| – | – | – | 4310 | 11.6 | > 50000 | FC(F)c1nnc(-c2ccc(Cn3cc(-c4ccnc5[nH]ccc45)nn3)cc2)o1 [Compound 4527, 2-(4-((4-(1H-pyrrolo[2,3-b]pyridin-4-yl)-1H-1,2,3-triazol-1-yl)methyl)phenyl)-5-(difluoromethyl)-1,3,4-oxadiazole] |
| – | – | – | 1256 | 39.8 | > 50000 | FC(F)c1nnc(-c2ccc(Cn3cc(-c4ccc(CNC5COC5)cc4)nn3)nc2)o1 [Compound 4566, N-(4-(1-((5-(5-(difluoromethyl)-1,3,4-oxadiazol-2-yl)pyridin-2-yl)methyl)-1H-1,2,3-triazol-4-yl)benzyl)oxetan-3-amine] |
| – | – | – | 449 | 111 | > 50000 | CCN1Cc2cccc(-c3cn(Cc4ccc(-c5nnc(C(F)F)o5)cc4)nn3)c2C1 [Compound 4530, 2-(difluoromethyl)-5-(4-((4-(2-ethylisoindolin-4-yl)-1H-1,2,3-triazol-1-yl)methyl)phenyl)-1,3,4-oxadiazole] |
| – | – | – | 5681 | 8.8 | > 50000 | FC(F)c1nnc(-c2ccc(Cn3cc(-c4cnc5[nH]ccc5c4)nn3)cc2)o1 [Compound 4525, 2-(4-((4-(1H-pyrrolo[2,3-b]pyridin-5-yl)-1H-1,2,3-triazol-1-yl)methyl)phenyl)-5-(difluoromethyl)-1,3,4-oxadiazole] |

The next lines start with the molecule.

| SMILES | HDAC6 selectivity (fold) ([1]; HDAC1 IC50 / HDAC6 IC50) | IC50 [1, 3] [nM] | IC50 [2, 4] [nM] | HDAC6 selectivity (fold) ([1]; HDAC6 over HDAC1) | IC50 [1, 5] [nM] | IC50 [2, 6] [nM] |
| --- | --- | --- | --- | --- | --- | --- |
| FC(F)c1nnc(-c2ccc(Cn3cc(C4CCCCC4)nn3)nc2)o1 [Compound 3880, 2-(6-((4-cyclohexyl-1H-1,2,3-triazol-1-yl)methyl)pyridin-3-yl)-5-(difluoromethyl)-1,3,4-oxadiazole] | 627 | 79.7 | > 50000 | – | – | – |
| OCCCc1cn(Cc2ccc(-c3nnc(C(F)F)o3)cn2)nn1 [Compound 3833, 3-(1-((5-(5-(difluoromethyl)-1,3,4-oxadiazol-2-yl)pyridin-2-yl)methyl)-1H-1,2,3-triazol-4-yl)propan-1-ol] | 117 | 424 | > 50000 | – | – | – |
| CCC(F)(CC)CN1CCC(c2cn(Cc3ccc(-c4nnc(C(F)F)o4)cn3)nn2)CC1 [Compound 3896, 2-(difluoromethyl)-5-(6-((4-(1-(2-ethyl-2-fluorobutyl)piperidin-4-yl)-1H-1,2,3-triazol-1-yl)methyl)pyridin-3-yl)-1,3,4-oxadiazole] | 187 | 267 | > 50000 | – | – | – |
| FC(F)(F)c1nnc(-c2ccc(Cn3nnc(-c4cccs4)n3)nc2)o1 [Compound 4233] | 3846 | 13 | > 50000 | – | – | – |
| FC(F)c1nnc(-c2ccc(Cn3cc(-c4ccc(Cl)nc4)nn3)nc2)o1 [Compound 3882, 2-(6-((4-(6-chloropyridin-3-yl)-1H-1,2,3-triazol-1-yl)methyl)pyridin-3-yl)-5-(difluoromethyl)-1,3,4-oxadiazole] | 988 | 50.6 | > 50000 | – | – | – |
| CC(C)(F)CN1CCC(c2cccc(-c3cn(Cc4ccc(-c5nnc(C(F)F)o5)cc4F)nn3)c2)CC1 [Compound 4349, 2-(difluoromethyl)-5-(3-fluoro-4-((4-(3-(1-(2-fluoro-2-methylpropyl)piperidin-4-yl)phenyl)-1H-1,2,3-triazol-1-yl)methyl)phenyl)-1,3,4-oxadiazole] | 137 | 363 | > 50000 | – | – | – |
| CCN1CCC(F)(c2cn(Cc3ccc(-c4nnc(C(F)F)o4)cn3)nn2)CC1 [Compound 4006, 2-(difluoromethyl)-5-(6-((4-(1-ethyl-4-fluoropiperidin-4-yl)-1H-1,2,3-triazol-1-yl)methyl)pyridin-3-yl)-1,3,4-oxadiazole] | 375 | 133 | > 50000 | – | – | – |
| FC(F)(F)c1nnc(-c2ccc(Cn3nnc(-c4ccccc4)n3)nc2)o1 [Compound 4235] | 290 | 172 | > 50000 | – | – | – |
| Fc1ccc(-c2cn(Cc3ccc(-c4nnc(C(F)F)o4)cc3F)nn2)cc1F [Compound 3662, 2-(difluoromethyl)-5-(4-((4-(3,4-difluorophenyl)-1H-1,2,3-triazol-1-yl)methyl)-3-fluorophenyl)-1,3,4-oxadiazole] | 289 | 173 | > 50000 | – | – | – |

Reference: patent US20230257372A1 (CHONG KUN DANG PHARMACEUTICAL CORP., priority 2020, published 2023)
